2 compounds from patent US9198894B2, “Uses of 15-benzylidene-14-deoxy-11,12-didehydroandrographolide derivatives in the preparation of antineoplastic drugs” (Zhengzhou University, priority 2010, dated 2015) can be followed below.

Where “and” joins values, the source holds several entries; their conditions need not be identical. Equal entries are not always repeated. Marks after values point to notes of the source that are not given here.

Series [1] has as its system PC-3 human prostate carcinoma cells. The series is described as follows: Wound healing (two-dimensional migration) assay, PC-3. The format is cell-based. Particulars: PC-3, 10.00 μmol/l, 36 h (FIG. 1F). The protocol: (§1) 1) Cell lines: Cell lines of 5637 human bladder carcinoma, Eca-109 human esophageal carcinoma, HT29 human colon cancer, SGC-7901 human gastric cancer, A549 human lung adenocarcinoma and PC-3 human prostate carcinoma were purchased from the Type Culture Collection of the Chinese Academy of Sciences, Shanghai, China.
3) Methods: The cells were trypsinized to generate a single-cell suspension and seeded in 96-well plates (200 μl/well), and incubated with medium containing 10% fetal bovine serum at 37 in a humidified atmosphere with 5% CO2. Following a 24 h incubation, the cells were starved for an additional 12 h in low-serum media (1% FBS). The cultures of Eca-109, HT29, 5637, SGC-7901, A549 and PC-3 were then scratched away with a 200-μl plastic pipette tip and rinsed twice with PBS to remove wound-derived loose and dislodged cells. […] The average scraped area in each well under each treatment condition was measured, and the percentage of inhibition against cell migration was calculated. % of inhibition=1−(A0−At)/(A′0−A′t)×100%, where, A0 and At are the areas of wound with compound treatment measured immediately and 24 or 36 h post-injury, respectively; A′0 and A′t are the areas of wound without compound treatment measured immediately and 24 or 36 h post-injury, respectively.

Series [2] relates to A549 human lung adenocarcinoma. The series is described as follows: Colony formation assay, A549. The format is cell-based. The protocol:
(§2) 1) Cell lines: Cell lines of SGC-7901 human gastric cancer, A549 human lung adenocarcinoma and Hela human cervical carcinoma were purchased from the Type Culture Collection of the Chinese Academy of Sciences, Shanghai, China.
(§3) 3) Method: Colony formation assay was used. The cells were trypsinized to generate a single-cell suspension and seeded in a 6-well plate at a density of 100 cells/well, then drug-containing medium was added to the well to make the final concentration of compound to 0, 1.25, 2.50, 5.00, 7.50, 10.00 μmol/L, respectively. The experiments were performed in duplicate, and the cells were cultured at 37 in a humidified atmosphere with 5% CO2. Terminate cell culture when the clones can be seen in the culture plate, then remove the culture medium, and wash twice with PBS, fix the cells with methanol (5 ml/well) for 15 min and stain the cells with hematoxylin-eosin stain. The number of clones which comprised more than 50 cells was counted under a TS100-F-PH microscope (Nikon Company, Japan). Calculate relative colony formation ratio (%) and the IC50 values. Relative colony formation ratio (%)=(colony number of drug-administration well/colony number of control well)×100%.

In series [3] the test system is SGC-7901 human gastric cancer. Put plainly: Colony formation assay, SGC-7901. The format is cell-based. On the procedure:
as §2, §3

In series [4] the test system is Hela human cervical carcinoma. Put plainly: Colony formation assay, Hela. In kind it is cell-based. Particulars: Hela; read-out: Inhibition against tumor cell colony formation IC50. The protocol:
as §2, §3

The test system of series [5] is 5637 human urinary bladder cancer cells. Put plainly: Wound healing (two-dimensional migration) assay, 5637. The format is cell-based. The settings on record: 5637, 10.00 μmol/l, 24 h (FIG. 1C). On the procedure: as §1
3) Methods: The cells were trypsinized to generate a single-cell suspension and seeded in 96-well plates (200 μl/well), and incubated with medium containing 10% fetal bovine serum at 37 in a humidified atmosphere with 5% CO2. Following a 24 h incubation, the cells were starved for an additional 12 h in low-serum media (1% FBS). The cultures of Eca-109, HT29, 5637, SGC-7901, A549 and PC-3 were then scratched away with a 200-μl plastic pipette tip and rinsed twice with PBS to remove wound-derived loose and dislodged cells. The cells were cultured in replaced medium without or with compounds at final concentrations of 0, 2.50, 5.00 and 10.00 μmol/L, respectively. At least seven randomly selected views along the scraped line in each well were photographed immediately and 24 h and 36 h after incubation using a digital camera at 50× magnification. The average scraped area in each well under each treatment condition was measured, and the percentage of inhibition against cell migration was calculated. % of inhibition=1−(A0−At)/(A′0−A′t)×100%, where, A0 and At are the areas of wound with compound treatment measured immediately and 24 or 36 h post-injury, respectively; A′0 and A′t are the areas of wound without compound treatment measured immediately and 24 or 36 h post-injury, respectively.

A further series relates to TNF-α. The format is in vivo, mouse. Particulars: mouse, in vivo, 30 mg/kg.
The format of series [6] is in vivo, mouse. Particulars: C57BL/6 mice, before vs 24 d after administration, Cyc 30 mg/kg ig. The protocol: (§4) 4) Method: B16-F10 cells in logarithmic growth phase were trypsinized, then resuspended in RPMI1640 medium containing 10% fetal bovine serum and centrifuged at 1000 rpm for 5 min. The supernatant was removed and sterile PBS was added to prepare single-cell suspension (10^7/mL). The murine melanoma lung metastasis model was established in mice via caudal vein injection of B16-F10 cells (0.2 ml/mouse). Mice were randomly divided into 4 groups (n=5) according to body weight, and 24 h later they were administrated intragastrically (ig; 0.2 ml/10 g) once a day continuously for 24 d with vehicle (tumor control group), Cyc (30 mg/kg), compound 3 at 0.85 mmol/kg and 1.10 mmol/kg. Mice were weighed and blood was collected by removing the eyeball at 24 h after the last administration. Sacrificed the mice, removed the lung and counted the number of melanoma nodules in lungs of mice under an anatomical lens. Serum obtained after centrifugation at 3000 rpm for 20 min (3K30 refrigerated centrifuge, Sigma, USA) was conserved at −20° C. Levels of TNF-α and IL-1β in serum were measured by ELISA method, which were performed in accordance with the instructions of the kits.

For series [7], the system named is B16-F10 mouse melanoma cells. The format is in vivo. Particulars: B16-F10, C57BL/6 mice, 30.00 mg/kg ig 24 d. The protocol:
1) Animals: A total of 20 C57BL/6 male mice of clean grade [Number of Animal License: SCXK (Xiang) 2009-0004], weighing 18-22 g, were purchased from Hunan Slca Jingda Experimental Animal Center Company, Ltd., China.
2) Cells: B16-F10 mouse melanoma cells were purchased from Nanjing KeyGen Biotech. Co. Ltd., China.
as §4
Data were expressed as mean±SD and statistical analysis was performed by SPSS Statistics 17.0 using a one-way analysis of variance (ANOVA) followed by unpaired t-test. A value of P<0.05 was considered statistically significant. The inhibition ratio (IR %) of lung metastasis was calculated as follows: IR %=(Nc−Nt)/Nc×100%, where Nc is the average number of nodules in lung tissues of vehicle, and Nt is that of mice treated with drugs.

In another series the test system is IL-1β. In kind it is in vivo, mouse. Particulars: mouse, in vivo, 30 mg/kg.
The subject of another series is S180 murine sarcoma. The series is described as follows: Growth, invasion and metastasis of S180 sarcoma in tumor-bearing mice. The format is in vivo, mouse. On the procedure:
1) Animals: Be the same with that of EXAMPLE 4.
2) Cells: The S180 murine sarcoma cells were obtained from Henan Academy of Medical and Pharmaceutical Sciences (Zhengzhou, China).
4) Method: Mice were randomly divided into 10 groups (n=12). The S180 cells after in vivo passage for 7 d were diluted with physiological saline to adjust to a concentration of 1×10^7/mL. The inoculation of tumor cells was conducted in two batches, those of tumor control group I and groups treated with compounds 1 or 3 were in batch 1, those of tumor control group II, Cyc group and the compound 2 groups were in batch 2. The mice were injected with S180 cells (0.2 ml/mouse) into the armpit of right forelimb subcutaneously, and 24 h later each group of mice was administrated intragastrically (ig; 0.2 ml/10 g) once a day continuously for 9 d with vehicle (tumor control group), Cyc (standard control), or compounds at the tested doses. On day 10, kill the mice, observe and record the degree of invasion and metastasis of tumor tissues, then the tumor tissues were segregated and weighed. The inhibition ratio (IR) of tumor growth was calculated by the following formula: IR (%)=[(Wc−Wt)/Wc]×100%, where Wc is the average tumor weight of the control group, and Wt is that of the treatment group. Data were expressed as mean±SD and statistical analysis was performed by SPSS Statistics 17.0 using a one-way analysis of variance (ANOVA) followed by unpaired t-test. A value of P<0.05 was considered statistically significant.

Another series concerns Murine hepatoma H22. Put plainly: Anti-tumor and anti-angiogenesis effects on H22 tumor-bearing mice. The format is in vivo, mouse. Particulars: H22 mice, 20.00 mg/kg ig once a day 7 d. An excerpt: 1) Animals: Kunming mice of clean grade, half male and half female, body weight 20±2 g, were purchased from the experimental animal center of Henan Province, China. Qualified Certificate number: SCXK (Yu) 2005-0001.
2) Cells: Murine hepatoma H22 cells were presently obtained from Henan Academy of Medical and Pharmaceutical Sciences (Zhengzhou, China).
Cyclophosphamide (Cyc) was produced by Tianjin Jingshi Pharmaceutical Co., Ltd., China (approval number of medicine: H12021006). Gelatin and carmine red were supplied by Sigma Chemical (St. Louis, Mo., U.S.A). All other chemicals and reagents were of the highest commercial grade available. All drugs were prepared with normal saline emulsified with Tween-80 (0.1% v/v) and dispersed in carboxymethylcellulose (0.5% v/v). 10% (W/V) carmine solution was prepared with salt solution containing 5% (W/V) gelatin which should be used immediately after preparation. The rest of medicines and reagents and the methods for preparation were the same with that of EXAMPLE 1.
4) Method: The H22 cells after in vivo passage for 7 d were diluted with physiological saline to adjust to a concentration of 1×10^7/mL, injected to the armpit of right forelimb of mice subcutaneously (0.2 ml/mouse), then mice were divided into 10 groups (n=12; 6 male and 6 female per group) randomly. 24 h later each group of mice was administrated intragastrically (ig; 0.2 ml/10 g) once a day continuously for 7 d with vehicle (tumor control group and control group), Cyc (standard control), or compounds at the tested doses. After the last drug administration and a following fasting of 8 h, each mouse was anesthetized with 1% pentobarbital in normal saline solution (80 mg/kg; ip). Mice of control group were injected with 5% gelatin in normal saline solution (40) via the tail vein (1 ml/mouse); whereas mice of other groups were injected replaced by 10% carmine red and 5% gelatin in normal saline solution (40). Mice were killed, then freezed in a refrigerator at −20 for 2 h to solidify. Tumors were segregated, weighed and homogenized with 3 M NaOH solution (10 ml/g tumor). The homogenate supernatant was prepared by being centrifuged for 20 min at 14000 rpm, and the absorbance at 490 nm was assayed using a PowerWaveX Microplate Scanning Spectrophotometer (Bio-tek Instruments, Inc). The carmine red content was calculated based on the standard curve. The vascular index (VI) expressed as milligram of carmine red per gram of tumor tissue. The inhibition ratio (IR) of tumor growth was calculated using the formula: IR (%)=[(Wc−Wt)/Wc]×100%, where Wc is the average tumor weight of the control group, and Wt is that of the drug treatment group. Data were expressed as mean±SD and statistical analysis was performed by SPSS Statistics 17.0 using a one-way analysis of variance (ANOVA) followed by unpaired t-test. A value of P<0.05 was considered statistically significant.

Where [8] appears, read: read-out: Inhibition against tumor cell colony formation IC50.

As a reminder, the IC50 is the concentration that inhibits the measured activity by half. Turning to `C=C1CCC2C(C)(CO)C(O)CCC2(C)C1C=CC1=CC(=Cc2ccccc2)OC1=O` (centres unmarked) [Compound 4], the “Inhibitory effect on two-dimensional migration” value in [1] and in series [5] was “much stronger than that of other tumor cells” in each case. Besides, the “Inhibition of colony formation compared with andrographolide” value in series [2] and in [3] was “remarkably stronger than that of andrographolide” in each case. In addition, the values for the IC50 in series [2] (setting [8]), in series [3] (setting [8]) and in series [4] were 4.51 µM, 5.07 µM and 4.84 µM, respectively.
With `O=P1(N(CCCl)CCCl)NCCCO1` (centres unmarked) [Cyc, Cyclophosphamide, reference compound], the TNF-α in serum in the series on TNF-α came out at 8.45 ± 9.54. In addition, the “Average increase in body weight” value in series [6] is given as 0.7 g. Moreover, in [7] (30 mg/kg), the “IR (%) of lung metastasis” value came out at 47.92%. For the same compound, in series [7] (mean ± s, n = 5), the Lung index was found to be 6.66 ± 0.37 mg/g and the “Nodule number (melanoma nodules in lungs)” value is reported as 43.76 ± 11.70. Further, the IL-1β in serum in the series on IL-1β was 41.58 ± 4.39 pg/mL. In the series with S180 murine sarcoma (30.00 mg/kg ig once a day 9 d), the “IR (%) of S180 sarcoma growth” value is 53.61% and 53.61 ± 12.43 %. Moreover, in the series with S180 murine sarcoma (S180, grades 0-4, 30.00 mg/kg), the “Average invasion and metastasis grade” value is 3.67. For the same compound, in the series on S180 murine sarcoma (S180 invasion, Grade 0: no invasion, 30.00 mg/kg), the “Mouse Number Grade 0” value was 0. Further, in the series on S180 murine sarcoma (S180 invasion, Grade 1: invasion to right forelimb, 30.00 mg/kg), the “Mouse Number Grade 1” value was 0. In addition, in the series on S180 murine sarcoma (S180 invasion, Grade 2: right forelimb and the left side of body, 30.00 mg/kg), the “Mouse Number Grade 2” value stood at 0. In addition, in the series with S180 murine sarcoma (S180 invasion, Grade 3: also the ribs and muscles in chest, 30.00 mg/kg), the “Mouse Number Grade 3” value is listed as 4. Also, in the series with S180 murine sarcoma (S180 invasion, Grade 4: invasion into chest or abdominal cavity, 30.00 mg/kg), the “Mouse Number Grade 4” value was determined as 8. In addition, in the series on Murine hepatoma H22, the “IR (%) of tumor growth” value is 29.34* %. Besides, in the series on Murine hepatoma H22 (mean ± s), the Carmine contents amounted to 4.24 ± 2.29 and the “VI (vascular index, mg carmine red per g tumor tissue)” value is 4.87 ± 1.13 mg/g.
